According to US11707440B2 (priority 2017, dated 2023):

Experiments:
[1] = system: adult subjects with TRD; type: in vivo, human
Method: Blood pressure and pulse/heart rate measurements were assessed supine with a completely automated device. Manual techniques were used only if an automated device is not available. Blood pressure and pulse/heart rate measurements were preceded by at least 5 minutes of rest in a quiet setting without distractions (e.g., television, cell phones).
Transient blood pressure increases peaked for the esketamine group at approximately 40 minutes post dose and returned to normal range at 90 minutes. […] The maximum mean increase (across all dosing days) in diastolic BP were 8.1 in the esketamine group and 4.5 in the active comparator group. FIGS. 7 and 8 present the means for measured blood pressure over time by treatment group in the double-blind phase.

[2] = system: elderly subjects with TRD; type: in vivo, human; conditions: each dosing day
Source text: The Modified Observer's Assessment of Alertness/Sedation (MOAA/S) was used to measure treatment-emergent sedation with correlation to levels of sedation defined by the American Society of Anesthesiologists (ASA) continuum. The MOAA/S scores range from 0 (No response to painful stimulus; corresponds to ASA continuum for general anesthesia) to 5 (Readily responds to name spoken in normal tone [awake]; corresponds to ASA continuum for minimal sedation). The proportion of subjects with sedation was <4% for the esketamine group for each dosing day.

[3] = system: subjects with MDD at imminent risk for suicide; type: in vivo, human; conditions: esketamine 84 mg
Method: Transient blood pressure increases peaked for the esketamine group at approximately 40 minutes post dose with the maximum mean increases (across all dosing days) in systolic BP being 8.7 in the placebo group and 16.7 in the esketamine 84 mg group. The maximum mean increases (across all dosing days) in diastolic BP were 7.6 in the placebo group and 11.9 in the esketamine 84 mg group. […] See, FIGS. 46 and 47.

[4] = system: subjects with MDD at imminent risk for suicide; type: in vivo, human; conditions: esketamine 84 mg; safety analysis set
Method: Of the 68 subjects in the all randomized analysis set, 19 (27.9%) subjects discontinued from the double-blind phase. More subjects in the esketamine 84 mg group discontinued due to adverse events (5 subjects in the esketamine 84 mg group versus 1 subject in the placebo group) whereas more subjects in the placebo group discontinued due to lack of efficacy (4 subjects in the placebo group versus 1 subject in the esketamine 84 mg group).
More subjects in the esketamine 84 mg group than in the placebo group had all 8 dosing sessions (74.3% vs. 64.5%). Five subjects reduced their dose of esketamine from 84 mg to 56 mg. Of these, 3 reduced their dose due to an adverse event and 2 had their dose reduced in error and were considered major protocol deviations.

[5] = system: subjects with TRD; set-up: species or system human; conditions: in vivo
Source text: Subjects with and without hypertension experienced similar magnitude of mean increases of SBP and DBP.
The maximum mean increases (across all dosing days within the respective phase) in diastolic BP were 5.6 and 5.2 in the IND and OP/MA phases, respectively.

[6] = system: patients with treatment-resistant depression (TRD); test: GAD-7, Example 7; type: in vivo, human
Method: Overall illness severity was assessed on the Clinical Global Impression of Severity (CGI-S) scale (Guy, “ECDEU Assessment Manual for Psychopharmacology-Revised (DHEW Publ No ADM 76-338)”, Rockville, Md.: U.S. Department of Health, Education, and Welfare, Public Health Service, Alcohol, Drug Abuse, and Mental Health Administration, NIMH Psychopharmacology Research Branch, Division of Extramural Research Programs; 1976, pp 218-222). Participants assessed their severity of anxiety on the Generalized Anxiety Disorder 7-item (GADS-7) Scale (See, Tables 157 and 15). See, Spitzer, “A brief measure for assessing generalized anxiety disorder—the GAD-7”, Arch. Intern. Med., 2006, 166(10):1092-1097.

[7] = system: patients with treatment-resistant depression (TRD); test: Blood pressure and heart rate, Example 7; type: in vivo, human
Method: (§1) Adverse events were monitored throughout the study. Other safety assessments (i.e., laboratory tests, vital signs, physical examination) were performed at pre-specified time points. Vital signs, the Clinician Administered Dissociative States Scale (CADSS; Bremner, “Measurement of dissociative states with the clinician-administered dissociative states scale (CADSS)”, J. Traumatic Stress, 1998, 11(1):125-136), and the 4-item positive symptom subscale from the Brief Psychiatric Rating Scale (BPRS; Overall, “The Brief Psychiatric Rating Scale. Psychological Reports”, 1962, 10:799-812) were assessed pre-dose, at 40 minutes, and 2 hours post-dose.

[8] = system: patients with treatment-resistant depression (TRD); test: BPRS positive symptom subscale, Example 7; set-up: species or system human; conditions: in vivo
Method: as §1

[9] = Pharmacokinetics of esketamine nasal spray, 14 Phase 1 studies (Example 10); conditions: human, plasma, inhaled or intranasal
Method: The data herein was assembled from 14 Phase 1 studies; each Phase 1 study was performed similarly to the study outlined in Example 9 in which the PK of esketamine was assessed.

[10] = system: adult subjects with TRD; conditions: US patients
Source text: Adverse events were reported by the subject (or, when appropriate, by a caregiver, surrogate, or the subject's legally acceptable representative) for the duration of the study. Adverse events were followed by the investigator. TEAEs of special interest were examined separately.
The verbatim terms used in the eCRF by investigators to identify adverse events were coded using the MedDRA. All reported adverse events with onset during the double-blind induction phase (i.e., TEAEs, and adverse events that have worsened since baseline) were included in the analysis. For each adverse event, the percentage of subjects who experience at least 1 occurrence of the given event was summarized by treatment group. Adverse events occurring during the follow-up phase were summarized separately.
TEAEs of special interest were examined separately. AEs of special interest were listed in the SAP. Subjects who died, who discontinued treatment due to an adverse event, or who experienced a severe or a serious adverse event were summarized separately.
An adverse event is any untoward medical occurrence in a clinical study subject administered a medicinal (investigational or non-investigational) product. […]

[11] = system: elderly subjects with TRD; conditions: US patients aged ≥65 years
[12] = system: glutamate NMDA receptor; conditions: in vitro; cited from earlier work
[13] = human, in vivo, other: intranasal
[14] = in most cases at 10 or 40 minutes post-dose

## CN[C@]1(c2ccccc2Cl)CCCCC1=O [esketamine, (S)-2-(2-chlorophenyl)-2-(methylamino)cyclohexanone]
[1]; double-blind phase
  Maximum mean increase in diastolic BP (across all dosing days): 8.1
[1]; [13]
  Time of peak of transient blood pressure increases: approximately 40 minutes post dose
  Time of return of blood pressure to normal range: 90 min
[2]
  Proportion of subjects with sedation (post dose MOAA/S score of ≤3): < 4%
[3]
  Maximum mean increase in diastolic BP (across all dosing days): 11.9
  Maximum mean increase in systolic BP (across all dosing days): 16.7
  Time of return of blood pressure to normal range: ≤ 2 hours post dose
[4]
  Dose decreased during double-blind: No: 29 (82.9%)
  Dose decreased during double-blind: Yes: 6 (17.1%)
[5]
  Subjects who discontinued intranasal esketamine due to increased blood pressure: Six
[6]; 28 mg, Period 1
  GAD-7 LS mean difference from placebo: −0.21
[6]; 28 mg, Period 1, first day to day 8
  GAD-7 change from baseline, LS mean: −1.5
[6]; 28 mg, Period 2, first day to day 8 of period
  GAD-7 change from baseline, LS mean: −1.6
[6]; 56 mg, Period 1
  GAD-7 LS mean difference from placebo: −1.40
[6]; 56 mg, Period 1, first day to day 8
  GAD-7 change from baseline, LS mean: −3.1
[6]; 56 mg, Period 2
  GAD-7 LS mean difference from placebo: 0.60
[6]; 56 mg, Period 2, first day to day 8 of period
  GAD-7 change from baseline, LS mean: 1.0
[6]; 84 mg, Period 1, first day to day 8
  GAD-7 change from baseline, LS mean: −5.1
[6]; 84 mg, Period 2, first day to day 8 of period
  GAD-7 change from baseline, LS mean: −0.9
[7]; dosing days
  Diastolic blood pressure, maximum mean change: 10.3 mmHg
  Heart rate, maximum mean change: 9.4 bpm
  Systolic blood pressure, maximum mean change: 19.0 mmHg
[7]; [13]
  Time of return of elevated blood pressure to the normal range: ≤ 2 hours post-dose
[7]; [14]
  Maximum diastolic blood pressure value: 115 mmHg
  Maximum systolic blood pressure value: 199 mmHg
[8]
  Symptoms suggestive of psychosis (BPRS-positive assessment): No participant manifested symptoms suggestive of psychosis
[9]; 28 mg
  AUC: 128 to 183 ng·h/mL
[9]; 56 mg
  AUC: 216 to 317 ng·h/mL
[9]; 84 mg
  AUC: 310 to 489 ng·h/mL
[10]
  Patients who withdrew from nasal spray drug: 3 patients
[11]
  Patients who withdrew the nasal spray: 2 patients
[12]
  Greater affinity for the glutamate NMDA receptor than R-ketamine: 3 to 4 fold
